Laboratory results as given in patent US20240058363A1 (Emyria, priority 2020, published 2024).

Experiments:
Assay type in all cases: in vivo, human
patients = experiment: Adverse events recorded at each visit in patients on CBD only
Method: (§1) Patients were assessed monthly by the clinical team (doctor and nurse) and a visit schedule protocol was followed for each patient. A full medical history was conducted at the initial visit, including a detailed history of the clinical indication (including duration symptoms), comorbidities mental and cardiac health conditions, previous procedures, medications and therapies tried. Patients were reviewed as per the Schedule of Assessments (FIG. 2). Cannabinoid dose and Adverse events were also recorded at each visit after treatment began and categorised as mild (no product change indicated), moderate (product change indicated), severe (product cessation indicated) or serious (life-threatening/medical emergency).
Adverse events (AE) were recorded at each of the visits. AEs were categorised as either: Mild (required no change in dose or product), Moderate (required change in dose or product), Severe (required cessation of product) or Serious (medical emergency).
All AEs reported during treatment were recorded. Assessments included monitoring of any or all of the following parameters: the participant's clinical symptoms, laboratory, pathological, radiological or surgical history, physical examination findings, and/or or findings from blood/urine tests. The nature, time of onset, duration and severity will be documented, together with the Investigator's opinion of the relationship to the Medicinal cannabis product.
Review of the dose and side effects was conducted by the doctor at 2 weeks; the doctors then advise whether to increase/or decreases doses. Reviews and clinical visits beyond the 2 weeks occurred monthly or more often as required by the patient due to efficacy and side effects.

symptoms of stress = experiment: DASS-21 stress score in patients treated with CBD only (clinical data registry); conditions: for DASS-21 Stress Score, Post 1-month follow-up Mean (Std. dev): mean days of treatment 47 (+/−23)
Text: (§2) Detailed demographic information and validated standardised questionnaires were collected as part of routine care. Written informed consent to treatment was obtained from all patients, as well as additional consent to participate in Emyria's clinical data registry, data from participating patients were anonymised, aggregated, and analysed to establish clinical efficacy.
(§3) Clinically validated tools were used to monitor patients for management of symptoms, quality of life, physical/emotional functioning, and concomitant medication usage. Patients were asked about their cannabis history and initially pre-screened for any illicit cannabis use before commencing on medicinal cannabis treatment using the Cannabis Use Disorder Identification Test (CUDIT), a urine screen was performed to confirm negative result for cannabis in their urine before they commence treatment. After they commenced on medicinal cannabis treatment they were initially treated with low doses and monitored for safety and efficacy of treatment before dose escalation is considered.
(§4) Patients are excluded from treatment with medicinal cannabis if they: were pregnant or breast-feeding; have untreated heart disease, heart failure or arrhythmia; a history of severe psychiatric disorders; active suicidal ideation; a history of dependence on cannabis; a history of dependence or abuse of psychoactive substances; detectable urinary THC before commencement of medicinal cannabis.
(§5) A potentially eligible individual who met any of the following criteria will be excluded from participation if the following criteria is met: • 1. Clinically recorded cannabis drug addiction, or cannabis use disorder including individuals with scores 8 or more on the Cannabis Use Disorder Identification Test (CUDIT). • 2. Untreated cardiovascular disease, arrhythmias (other than well controlled atrial fibrillation), or severe heart failure. • 3. History of suicide attempts or suicidal ideation. • 4. History of psychotic episode, schizophrenia or other psychotic disorders.
as §1
(§6) The doctors treating patients prescribed orally-based medicinal cannabis standardised products as per approval under the Therapeutic Goods Administration (TGA) through the Special Access Scheme (SAS) Category B and Authorised Prescriber (AP) scheme. The prescribing doctor will decide which product type including THC/CBD ratio and CBD only, based on TGA guidance documents (ie for pain THC/CBD type is generally prescribed) [see https://www.tga.gov.au/medicinal-cannabis-guidance-documents], but also will factor in patient's circumstances such as driving (then CBD only prescribed).
(§7) Treatment dosing by the prescribing doctor was in accordance with Emyria (Emerald Clinics) experience, well-tolerated with minimal side effects. Doctors reviewed patients after the 14 day (2 week), see the Schedule of Assessments (FIG. 2). Following the 2-week dosing review where a doctor may increase/decrease the dosage or change product type, patients were then seen regularly (generally monthly) as per the Schedule of Assessments (FIG. 2). Patients taking CBD only products were prescribed either oil or capsules. […]

symptoms of depression = experiment: DASS-21 depression score in patients treated with CBD only (clinical data registry); conditions: for DASS-21 Depression Score, Post 1-month follow-up Mean (Std. dev): mean days of treatment 47 (+/−23)
Text: as §2, §3, §4, §5, §1, §6, §7

[1] = among the 36 patients that experienced AEs
[2] = average treatment window of slightly under 13 days
[3] = dosage amounts between 50-200 mg per day
[4] = mean treatment horizon of 22 days
[5] = mean treatment period of 7 days
[6] = patients with subthreshold and clinically significant scores at baseline

C=C(C)C1CCC(C)=CC1c1c(O)cc(CCCCC)cc1O (stereo not shown) [cannabidiol, 2-[3-methyl-6-(1-methylethenyl)-2-cyclohexen-1-yl]-5-pentyl-1,3-benzenediol] was tested, and the “Patients with any AEs” value (patients; 36 out of 190 patients on CBD only) was 19%, the “Share of AEs that were mild (no change in dose or product)” value (patients; [1]) was 61% and the “Share of AEs that were moderate (requiring change in dose or product)” value (patients; [1]) was 36%. For the same compound, the “Patients with severe AEs (allergic reactions and constipation) resulting in cessation of the product” value (patients; one of the 36 patients with AEs) was 2.8%, the “DASS-21 Stress Score, Post 1-month follow-up Mean (Std. dev)” value (shortened to “DASS-21 Stress Score … (Std. dev)”) (symptoms of stress; All (n = 146), initial mean 21.6 (9.5), p 0.000) was 16.2 (9.5) and the “DASS-21 Stress Score … (Std. dev)” value (symptoms of stress; Mod to extreme (n = 79), initial mean 28.8 (6.2), p 0.000) was 20.5 (9.4). For the same compound, the “Decrease in stress score” value (symptoms of stress; [2]) was −9.0, the “DASS-21 Stress Score … (Std. dev)” value (symptoms of stress; baseline category Extremely Severe 34+ (n = 18), initial mean 38.2 (2.4), p 0.000) was 21.7 (12.2) and the “DASS-21 Stress Score … (Std. dev)” value (symptoms of stress; baseline category Mild 15-18 (n = 27), initial mean 16.9 (1.0), p 0.038) was 14.1 (6.5). For the same compound, the “DASS-21 Stress Score … (Std. dev)” value (symptoms of stress; baseline category Moderate 19-25 (n = 27), initial mean 22.4 (1.8), p 0.002) was 17.2 (7.7), the “DASS-21 Stress Score … (Std. dev)” value (symptoms of stress; baseline category Normal 0-14 (n = 40), initial mean 10.6 (3.1), p 0.100) was 9.0 (6.0) and the “DASS-21 Stress Score … (Std. dev)” value (symptoms of stress; baseline category Severe 26-33 (n = 34), initial mean 28.9 (1.9), p 0.000) was 22.6 (8.4). For the same compound, the “Change in stress score from initial visit to first follow-up versus dosage (FIG. 7)” value (symptoms of stress; [3]) was “correlated with a higher value of change indicating less symptoms of anxiety, stress and/or depression”, the “Fall in stress score” value (symptoms of stress; [4]) was −5.8 and the “Decline in stress score” value (symptoms of stress; [5]) was −16.0. For the same compound, the “Mean DASS-21 stress score over the first six months (FIG. 16)” value (symptoms of stress; [6]) was “significant reduction over the 6-month period”, the “DASS-21 Depression Score, Post 1-month follow-up Mean (Std. dev)” value (“DASS-21 Depression Score … (Std. dev)” for short) (symptoms of depression; All (n = 146), initial mean 17.4 (9.6), p 0.000) was 12.8 (10.0) and the “DASS-21 Depression Score … (Std. dev)” value (symptoms of depression; Mod to extreme (n = 92), initial mean 22.7 (8.0), p 0.000) was 16.4 (10.6). For the same compound, the “Decrease in depression score” value (symptoms of depression; [2]) was −11.2, the “DASS-21 Depression Score … (Std. dev)” value (symptoms of depression; baseline category Extremely Severe 28+ (n = 28), initial mean 32.9 (5.2), p 0.000) was 21.4 (11.6) and the “DASS-21 Depression Score … (Std. dev)” value (symptoms of depression; baseline category Mild 10-13 (n = 29), initial mean 10.9 (1.0), p 0.000) was 7.1 (4.6). The “DASS-21 Depression Score … (Std. dev)” value (symptoms of depression; baseline category Moderate 14-20 (n = 49), initial mean 16.4 (2.2), p 0.002) was 12.8 (8.1), the “DASS-21 Depression Score … (Std. dev)” value (symptoms of depression; baseline category Normal 0-9 (n = 25), initial mean 5.5 (2.3), p 0.543) was 6.2 (4.8) and the “DASS-21 Depression Score … (Std. dev)” value (symptoms of depression; baseline category Severe 21-27 (n = 15), initial mean 24.1 (1.6), p 0.089) was 18.8 (11.7). The “Change in depression score from initial visit to first follow-up versus dosage (FIG. 8)” value (symptoms of depression; [3]) was “correlated with a higher value of change indicating less symptoms of anxiety, stress and/or depression”, the “Fall in depression score” value (symptoms of depression; [4]) was −3.9 and the “Decline in depression score” value (symptoms of depression; [5]) was −17.5. The “Mean DASS-21 depression score over the first six months (FIG. 15)” value (symptoms of depression; [6]) was “significant reduction over the 6-month period”.
